In patent US11221334B2, “Method for determining breast cancer treatment” (THE REGENTS OF THE UNIVERSITY OF COLORADO, A BODY CORPORATE, priority 2012, dated 2022):

Assays:
ERβ = target: T1, ERβ (Homo sapiens, UniProt Q92731); test: Radioligand binding assay, [3H] Estradiol displacement; settings: 0.5 nM [3H] Estradiol; 0.1 μM to 100 μM
T1 construct: purchased Ricera Biosciences, LLC (contract assay)

ERα = target: T2, ERα (Homo sapiens, UniProt P03372); test: as above; settings: 0.5 nM [3H] Estradiol; 0.1 μM to 100 μM
T2 construct: purchased Ricera Biosciences, LLC (contract assay)
T2 sequence (P03372 1-595): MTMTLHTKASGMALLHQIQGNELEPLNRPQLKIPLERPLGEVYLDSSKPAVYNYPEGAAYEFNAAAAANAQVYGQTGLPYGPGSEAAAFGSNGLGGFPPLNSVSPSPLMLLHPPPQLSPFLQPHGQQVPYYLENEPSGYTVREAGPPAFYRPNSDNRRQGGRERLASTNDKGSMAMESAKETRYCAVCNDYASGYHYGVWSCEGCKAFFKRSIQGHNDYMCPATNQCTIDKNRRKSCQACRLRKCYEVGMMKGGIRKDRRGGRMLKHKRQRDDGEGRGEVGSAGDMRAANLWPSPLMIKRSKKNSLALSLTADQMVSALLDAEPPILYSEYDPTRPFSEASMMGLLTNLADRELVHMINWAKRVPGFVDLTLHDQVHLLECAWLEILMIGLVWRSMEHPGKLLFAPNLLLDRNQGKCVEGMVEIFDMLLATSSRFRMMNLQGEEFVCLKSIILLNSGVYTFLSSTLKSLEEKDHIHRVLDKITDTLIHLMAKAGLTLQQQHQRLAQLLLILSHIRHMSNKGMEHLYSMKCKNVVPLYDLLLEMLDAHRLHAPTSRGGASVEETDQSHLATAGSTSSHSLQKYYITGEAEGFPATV

PR, SDF-1 = test: qPCR of estrogen responsive genes PR and SDF-1; assay type: cell-based
Description: For FASN, PRLR and GCDFP-15, SYBR green quantitative gene expression analysis was performed using the following primers: FASN [NT] ID NO: 1), FASN […] ID NO: 2); PRLR [NT] ID NO: 3), PRLR […] ID NO: 4); […] ID NO: 5), […] ID NO: 6); 18[…] ID NO: 7), 18[…] ID NO: 8). For PR and SDF-1, taqman real time PCR was performed using validated primer/probe sets from Applied Biosystems (assay IDs: PR Hs01556702_ml, SDF-1 Hs00171022 ml, 18S Hs99999901_sl). Relative gene expression was calculated using the comparative Ct method and values were normalized to 18S.

[1] = tested on: AR-dependent MMTV-luciferase reporter; test: Luciferase assay in MDA-kb2 cells; assay type: cell-based, human; settings: Enza 10, 1, 0.1 μM, DHT, 24 h
Description: Luciferase Assays. MDA-kb2 cells were plated at 5×10^3 cells/well in 96-well luminescence plates and incubated overnight. Cells were treated with 10-fold serial dilutions of Enza (10, 1, 0.1 μM) and DHT (10, 1, 0.1, 0.01, 0.001 nM) that were prepared in DMSO. Following 24 h of incubation, the luminescence levels were determined with the luciferase assay system (Promega). Three independent experiments were performed and the luminescence values were determined as relative units (R.U.) and normalized to vehicle. Values were expressed as the mean fold induction±standard error (SE).

MCF7-TGL cells = settings: for decrease in whole body luminescence: day 11
Description: Tumor studies. […] Briefly, 10^6 MCF7-TGL cells stably expressing a triple fusion of thymidine kinase, GLP and luciferase (SFG-NES-TGL retroviral vector) for IVIS imaging purposes were mixed with Matrigel (BD Biosciences) and injected into the fourth inguinal mammary fat pad of female, ovariectomized athymic nu/nu or non-obese diabetic (NOD)/SCID mice (Taconic). At time of tumor injection, E2 pellets (60-day release, 1.5 mg/pellet, Innovative Research of America) or DHT (8 mg/pellet, packed and sealed in silastic tubing) were implanted subcutaneously (SQ) at the back of the neck. Tumor burden was assessed using in vivo imaging system (IVIS) or caliper measurements. Once the tumors had established, the mice were matched into groups on the basis of total tumor burden as measured by IVIS or caliper. […] The feed was irradiated and stored at 4° C. before use. […] All mice were given free access to MDV3100 mixed with chow or control chow during the entire study period and at an average of 3.5 g/day food intake. Feed was changed in the animal cages twice a week. Water and feed were prepared ad libitum. Two hours prior to sacrifice, mice were injected IP with 50 mg/kg BrDU (Sigma-Aldrich). Mice were euthanized by CO2 asphyxiation followed by cervical dislocation and blood, tumors, colon, uteri and mammary glands were harvested.
Immunohistochemistry. Slides were deparaffinized in a series of xylenes and ethanols and antigens were heat retrieved in either 10 mM citrate buffer pH 6.0 (BrdU, Ki67) or 10 mM Tris/1 mM EDTA buffer at pH 9.0 (AR, ER, caspase 3). Tissue for BrdU was incubated in 2N HCl followed by 0.1M sodium borate following antigen retrieval. […] Envision-HRP (Dakocytomation) was used for antibody detection. TUNEL staining for apoptosis was performed using the ApopTag Plus Peroxidase In Situ Apoptosis Detection Kit (Millipore), as per manufacturer's instructions. […] For BrdU and TUNEL staining in xenograft studies, three separate 200× fields of each xenograft tumor were taken using an Olympus BX40 microscope (Center Valley, Pa.) with a SPOT Insight Mosaic 4.2 camera and software (Diagnostic Instruments, Inc., Sterling Heights, Mich.). A color threshold (RGB for positive staining nuclei, and HSB for total nuclei) was adjusted manually using ImageJ (National Institutes of Health) for each image, and particles created by the thresholds were analyzed for total area. RGB area was divided by HSB area and multiplied by 100 for each image. For analysis of the nuclear androgen receptor, cleaved caspase 3 and Ki67, slides were scanned at 20× on an Aperio Scan ScanScope XT. Mammary tumor tissue was traced separately for each tumor and necrotic areas of the tumor removed using a negative pen tool in Aperio's Scanscope software. A Nuclear Algorithm was utilized to measure the percent positive cells for the Ki-67 and Androgen Receptor stained slides and the data exported. Cleaved Caspase 3 stained slides were analyzed using a modified Positive Pixel Count algorithm.

breast cancer = test: Tamoxifen study: adjuvant tamoxifen cohort, Kaplan-Meier by AR:ER ratio; assay type: in vivo, female patients
[2] = E2 pellet, chow 50 mg/kg enzalutamide or tamoxifen pellet

T1 sequence (Q92731 whole entry): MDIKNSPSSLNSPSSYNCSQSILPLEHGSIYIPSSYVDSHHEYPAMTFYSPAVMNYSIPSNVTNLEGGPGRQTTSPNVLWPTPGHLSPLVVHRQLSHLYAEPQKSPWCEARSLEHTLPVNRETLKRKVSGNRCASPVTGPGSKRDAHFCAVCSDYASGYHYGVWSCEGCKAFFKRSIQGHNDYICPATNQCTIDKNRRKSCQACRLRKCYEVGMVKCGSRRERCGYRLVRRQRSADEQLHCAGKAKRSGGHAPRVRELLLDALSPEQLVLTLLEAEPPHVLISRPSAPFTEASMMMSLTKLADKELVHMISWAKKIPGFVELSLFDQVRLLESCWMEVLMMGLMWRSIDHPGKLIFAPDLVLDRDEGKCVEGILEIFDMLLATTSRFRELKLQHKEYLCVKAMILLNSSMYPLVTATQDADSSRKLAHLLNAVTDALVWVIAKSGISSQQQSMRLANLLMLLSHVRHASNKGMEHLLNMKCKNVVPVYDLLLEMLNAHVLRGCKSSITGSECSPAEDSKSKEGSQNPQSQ

CNC(=O)c1ccc(N2C(=S)N(c3ccc(C#N)c(C(F)(F)F)c3)C(=O)C2(C)C)cc1F [enzalutamide]
binding to ERβ (ERβ): did not significantly bind
binding to ERα (ERα): did not significantly bind
E2-induced upregulation of PR and SDF-1 mRNA (PR, SDF-1): inhibited
activation of androgen responsive luciferase reporter [1]: inhibited activation of the luciferase construct in a dose dependent manner
decrease in AR nuclear localization in tumors (MCF7-TGL cells; DHT pellet, chow 50 mg/kg): 92.5%
increase in apoptotic cells (TUNEL staining) (MCF7-TGL cells; DHT pellet, chow 50 mg/kg): 50%
decrease in luminescence as compared to the DHT group (MCF7-TGL cells; DHT pellet, chow containing 50 mg/kg enzalutamide, day 19, IVIS): 83.2%
tumor burden (MCF7-TGL cells; DHT pellet, enzalutamide by oral gavage): decreased in a dose dependent manner
apoptosis under E2-stimulated growth conditions (MCF7-TGL cells; E2 pellet): did not induce apoptosis
decrease in whole body luminescence (MCF7-TGL cells; [2]): 70.3%

CC/C(=C(\c1ccccc1)c1ccc(OCCN(C)C)cc1)c1ccccc1 [tamoxifen]
mean time to failure (breast cancer; AR:ER<1.3): 45+/−2.3 months
median time to failure (breast cancer; AR:ER<1.3): > 120 months
median time to failure (breast cancer; AR:ER>=1.3): 30+/−2 months
mean time to failure (breast cancer; higher AR:ER ratio group (cut point 1.3)): 29+/−4.3 months
decrease in cell proliferation compared to the E2 group (BrdU incorporation) (MCF7-TGL cells; [2]): 46.4%
decrease in whole body luminescence (MCF7-TGL cells; [2]): 59.9%
